pKd: −log10 of the molar value. Bridge positions count the residues as written; N and C are the ends. Square brackets hold non-standard residues; d marks the D form. Peptide text beside a SMILES is read from it. NMeF = CN[C@@H](Cc1ccccc1)C(=O)O
Molecular target: human Granzyme B (hGranzyme B) (Homo sapiens, UniProt P10144)
Assay: Surface Plasmon Resonance (SPR) binding to human Granzyme B
Conditions: Table 8, 25° C.
Description: All reagents and solvents were purchased from commercial sources and used “as is” unless otherwise noted. Reaction progress and synthetic intermediate analysis were assessed by LCMS (UV detection with ESI, APCI, or other mass detection) when applicable using a MeCN/water gradient with either TFA, formic acid, or NH4HCO3 modifier. Silica gel and reverse-phase flash column chromatography were conducted with commercially available pre-packed columns. Reverse-phase preparative HPLC purification was performed on preparative HPLC instruments with UV and MS detection using a MeCN/water gradient with either TFA, formic acid, or NH4OH modifier. Unless otherwise noted, all KD data presented in tables refers to the surface plasmon resonance assay that is described in the Biological Assay section.
The kinetics of test peptide binding to human Granzyme B (hGranzyme B) was determined by SPR. All experiments were performed at 25° C. using the Biacore 8k+ instrument (Cytiva, Marlborough, MA). The Biacore 8k+ Insight Evaluation Software Version 3.0 was used to fit the data with a 1:1 binding model to determine the association rate constant ka (M^−1s^−1, where “M” equals molar and “s” equals seconds) and the dissociation rate constant kd (s^−1). These rate constants were used to calculate the equilibrium dissociation constant, KD (M)=kd/ka. To measure the binding kinetics of peptides of interest, surfaces were prepared by a capture method to a Series S Streptavidin (SA) chip using a 1×HBS-EP+ running buffer (Cytiva). hGranzyme B was diluted to 10 μg/mL in 1×HBS-EP+ and flowed over spot 2 of each flow cell on the chip at a flow rate of 10 μl/min for 20 s to achieve a level of capture of ~1100 RU. An unmodified spot 1 of each flow cell was used as a matrix binding control or reference surface. Binding kinetics were measured using single cycle kinetics at 25° C. by injecting 5 concentrations with 3-fold serial dilutions of test peptides from […] to 1 μM. Compound dilutions were performed manually in a running buffer containing 1×HBS-EP+(Cytiva), and a final concentration of 2% DMSO. The interaction analyses over hGranzyme B, were performed using a 120 s association time and a 900 s dissociation time. All experiments were conducted at a flow rate of […] with a data collection rate of 10 Hz.
Peptide dilution series included 2 zero concentration points (no compound) which were averaged and subtracted from the peptide concentration injection as DMSO control responses. Binding data acquired from the reference surface (matrix binding control) were subtracted from the binding data for hGranzyme B surface on the chip to determine specific binding. Next, the association phase data were solvent corrected to account for any signal fluctuation throughout the experiment due to subtle DMSO concentration differences. Corrected response data were analyzed using the Biacore 8k+ Evaluation Software Version 3.0 according to the manufacturer. SPR data for representative compounds of the disclosure are found in Table 8.

Sequence of human Granzyme B (hGranzyme B) (P10144 21-247): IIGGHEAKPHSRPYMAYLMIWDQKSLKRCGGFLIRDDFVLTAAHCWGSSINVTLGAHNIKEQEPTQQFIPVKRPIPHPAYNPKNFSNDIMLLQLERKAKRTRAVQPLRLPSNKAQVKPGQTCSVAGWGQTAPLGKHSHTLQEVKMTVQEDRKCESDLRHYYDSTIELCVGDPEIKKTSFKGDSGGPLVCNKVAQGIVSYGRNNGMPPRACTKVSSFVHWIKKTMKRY

SMILES	pKd
CC(C)[C@@H]1NC(=O)[C@H](CC(=O)O)NC(=O)[C@H](C(C)C)NC(=O)[C@H](CC(=O)O)NC(=O)[C@H](Cc2ccc(O)cc2)NC(=O)[C@H](Cc2ccc(O)cc2)NC(=O)[C@H](Cc2ccccc2)N(C)C(=O)[C@H](Cc2ccccc2)N(C)C(=O)[C@H](Cc2ccccc2)NC(=O)CSC[C@@H](C(=O)NCC(N)=O)NC(=O)[C@H](Cc2c[nH]cn2)NC(=O)[C@H](Cc2ccccc2)N(C)C(=O)[C@H](Cc2ccc(O)cc2)NC(=O)[C@H](C)NC(=O)[C@H](CC(=O)O)NC1=O [Compound 17a, *F.NMeF.NMeF.Y.Y.D.V.D.V.D.A.Y.NMeF.H.*C.G-NH2] ({CH2CO}-F[NMeF][NMeF]YYDVDVDAY[NMeF]HCG-NH2; thioether N-15)	7.97
CC(C)[C@@H]1NC(=O)[C@H](CC(=O)O)NC(=O)[C@H](Cc2ccc(O)cc2)NC(=O)[C@H](Cc2ccc(O)cc2)NC(=O)[C@H](Cc2ccccc2)N(C)C(=O)[C@H](Cc2ccccc2)N(C)C(=O)[C@H](Cc2ccccc2)NC(=O)CSC[C@@H](C(=O)NCC(=O)N[C@@H](CCCCN)C(N)=O)NC(=O)[C@H](Cc2c[nH]cn2)NC(=O)[C@H](Cc2ccccc2)N(C)C(=O)[C@H](Cc2ccc(O)cc2)NC(=O)[C@H](C(C)C)NC(=O)[C@H](CC(=O)O)NC(=O)[C@H](C(C)C)NC(=O)[C@H](CC(=O)O)NC1=O [Compound 12a, *F.NMeF.NMeF.Y.Y.D.V.D.V.D.V.Y.NMeF.H.*C.G.K-NH2] ({CH2CO}-F[NMeF][NMeF]YYDVDVDVY[NMeF]HCGK-NH2; thioether N-15)	8.59
CC(C)[C@@H]1NC(=O)[C@H](CC(=O)O)NC(=O)[C@H](Cc2ccc(O)cc2)NC(=O)[C@H](Cc2ccc(O)cc2)NC(=O)[C@H](C)NC(=O)[C@H](Cc2ccccc2)N(C)C(=O)[C@H](Cc2ccccc2)NC(=O)CSC[C@@H](C(=O)NCC(=O)NCC(=O)N[C@@H](CCCCN)C(N)=O)NC(=O)[C@H](Cc2c[nH]cn2)NC(=O)[C@H](Cc2ccccc2)N(C)C(=O)[C@H](Cc2ccc(O)cc2)NC(=O)[C@H](C(C)C)NC(=O)[C@H](CC(=O)O)NC(=O)[C@H](C(C)C)NC(=O)[C@H](CC(=O)O)NC1=O [Compound 9a, *F.NMeF.A.Y.Y.D.V.D.V.D.V.Y.NMeF.H.*C.G.G.K-NH2] ({CH2CO}-F[NMeF]AYYDVDVDVY[NMeF]HCGGK-NH2; thioether N-15)	6.73
CC(C)[C@@H]1NC(=O)[C@H](CC(=O)O)NC(=O)[C@H](Cc2ccc(O)cc2)NC(=O)[C@H](Cc2ccc(O)cc2)NC(=O)[C@H](Cc2ccccc2)N(C)C(=O)[C@H](Cc2ccccc2)N(C)C(=O)[C@H](Cc2ccccc2)NC(=O)CSC[C@@H](C(=O)NCC(=O)NCC(=O)N[C@@H](CCCCN)C(N)=O)NC(=O)[C@H](Cc2c[nH]cn2)NC(=O)[C@H](Cc2ccccc2)N(C)C(=O)[C@H](Cc2ccc(O)cc2)NC(=O)[C@H](C(C)C)NC(=O)[C@H](CC(=O)O)NC(=O)[C@H](C(C)C)NC(=O)[C@H](CC(=O)O)NC1=O [Compound 2a, *F.NMeF.NMeF.Y.Y.D.V.D.V.D.V.Y.NMeF.H.*C.G.G.K-NH2] ({CH2CO}-F[NMeF][NMeF]YYDVDVDVY[NMeF]HCGGK-NH2; thioether N-15)	8.96
CC(C)[C@@H]1NC(=O)[C@H](C)NC(=O)[C@H](C(C)C)NC(=O)[C@H](CC(=O)O)NC(=O)[C@H](Cc2ccc(O)cc2)NC(=O)[C@H](Cc2ccc(O)cc2)NC(=O)[C@H](Cc2ccccc2)N(C)C(=O)[C@H](Cc2ccccc2)N(C)C(=O)[C@H](Cc2ccccc2)NC(=O)CSC[C@@H](C(=O)NCC(N)=O)NC(=O)[C@H](Cc2c[nH]cn2)NC(=O)[C@H](Cc2ccccc2)N(C)C(=O)[C@H](Cc2ccc(O)cc2)NC(=O)[C@H](C(C)C)NC(=O)[C@H](CC(=O)O)NC1=O [Compound 22a, *F.NMeF.NMeF.Y.Y.D.V.A.V.D.V.Y.NMeF.H.*C.G-NH2] ({CH2CO}-F[NMeF][NMeF]YYDVAVDVY[NMeF]HCG-NH2; thioether N-15)	6.26

From patent US20260297134A1, “CYCLIC PEPTIDES AS PET IMAGING AGENTS OF GRANZYME B” (Merck Sharp & Dohme LLC, priority 2023, published 2026)
